Test results: publication PMC4912077 (PLoS ONE, 2016)
Entries after “also recorded” stand apart in the source; their conditions may differ. Where two headings read alike, the source gives them in different places.

Assays:
H1 = H1 (Homo sapiens, UniProt P35367); assay: NIMH PDSP radioligand binding, H1
Experimental: (§1) Radioligands and concentrations used for additional 45 CNS receptor binding assays are listed as supporting information (S1 Table). This work was performed by the National Institute of Mental Health Psychoactive Drug Screening Program (NIMH PDSP) as described previously.[26] Briefly target compounds were dissolved in DMSO and subjected to a primary screen at 10,000 nM concentration. […] Additional experimental details are available in the NIMH PDSP assay protocol book.

M5 = M5 (Homo sapiens, UniProt P08912); assay: NIMH PDSP radioligand binding, M5
DAT [1] = molecular target: T1, DAT (Homo sapiens, UniProt Q01959); assay: NIMH PDSP radioligand binding, DAT
Experimental: as §1

Sigma 2 = molecular target: T2, Sigma 2 (Rattus norvegicus, UniProt Q5U3Y7); assay: NIMH PDSP radioligand binding, Sigma 2
T2 sequence (Q5U3Y7 1-176): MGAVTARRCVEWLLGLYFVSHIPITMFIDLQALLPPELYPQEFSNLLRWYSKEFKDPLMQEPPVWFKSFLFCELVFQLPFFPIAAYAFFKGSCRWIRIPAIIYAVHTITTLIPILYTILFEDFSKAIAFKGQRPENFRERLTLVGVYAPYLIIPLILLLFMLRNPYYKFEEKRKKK
Experimental: as §1

Human SERT = molecular target: T3, Human SERT (Homo sapiens, UniProt P31645); assay: Monoamine reuptake inhibition assay, SERT in HEK293 cells; type: cell-based
T3 construct: expressed in transfected cells; host or cells: HEK293
Experimental: (§2) Monoamine reuptake inhibition assays were performed via the NIMH PDSP as previously described.[28] In brief, the neurotransmitter transporter uptake assay kit (R8174) (Molecular Devices) was used. Human monoamine transporters (DAT, NET and SERT) were stably expressed in HEK293 cells. Assay buffer consisted of 20 mM HEPES, 1x HBSS at pH 7.4. Cells were plated in Pol-L-Lys (PLL) coated 384-well black clear bottom cell culture plates with a density of 15,000 cells/well. Cells were incubated for at least 6 h prior to assay. Media was removed and replaced with 20 μL assay buffer and 5 μL of drug or positive control (cocaine or nisoxetine) as a 5X stock. Cells were incubated for 30 min at 37°C. 25 μL of dye solution was then added and following an additional 30 min incubation (at 37°C) fluorescence intensity was measured using a FlexStation II (bottom read mode, excitation wavelength = […], emission = 520 nM with a cutoff of 510 nM). […] Additional details are available in the NIMH PDSP assay protocol book.

Sprague–Dawley rats [2] = assay: Pre-pulse inhibition (PPI) of acoustic startle in rats; type: in vivo, rat; settings: for ED50: sc, rat, subcutaneous, read-out: ED50 for reduction of average PPI
Experimental: (§3) Male Sprague–Dawley rats from Harlan Industries (Indianapolis, IN, USA; initial weight 250–275 g) were housed in pairs under a 12-h reverse light/dark cycle (lights off at 0700 h). Use of a reversed light/dark cycle allows behavioral testing to be conducted during the awake phase of the light/dark cycle. Food and water were available ad libitum. Animals were acclimatized for approximately 1 wk after arrival prior to behavioral testing and maintained in Association for Assessment and Accreditation of Laboratory Animal Care (AAALAC)-approved facilities that meet all federal and state guidelines. Procedures were approved by the University of California San Diego institutional animal care and use committee. Principles of laboratory animal care were followed.
DPH hydrochloride and 2-MXP hydrochloride were dissolved in water containing 5% Tween-80 and administered subcutaneously, 10-min prior to the start of the startle test session. The injection volume was 1 ml/kg.
Eight startle chambers (SR-LAB system, San Diego Instruments, San Diego, CA, USA) were used to measure startle reactivity in rats. The startle test chambers were sound-attenuated, lighted, and ventilated enclosures containing a clear nonrestrictive cylindrical Plexiglas stabilimeter, 8.2 cm in diameter. A high-frequency loudspeaker mounted 24 cm above the Plexiglas cylinder produced all acoustic stimuli. The peak and average amplitudes of the startle response were detected by a piezoelectric accelerometer. At the onset of the startling stimulus, 100 1-ms readings were recorded, and the average amplitude was used to determine the magnitude of the startle response (measured in arbitrary units).
Acoustic startle test sessions consisted of startle trials (pulse-alone) and prepulse trials (prepulse + pulse). The pulse-alone trial consisted of a 40-ms 120-dB pulse of broadband white noise. Prepulse + pulse trials consisted of a 20-ms acoustic prepulse, an 80-ms delay, and then a 40-ms 120-dB startle pulse (100-ms onset–onset). There was an average of 15 s (range = 6–22 s) between trials. During each inter-trial interval, the movements of the animals were recorded once to measure response when no stimulus was present (data not shown). Each startle session began with a 5 min acclimation period to a 65-dB broadband noise that was present continuously throughout the session. One week after arrival, animals were tested in a brief baseline startle/PPI session to create treatment groups matched for levels of startle and PPI. The startle test session contained 12 pulse-alone trials and 36 prepulse + pulse trials (12 prepulses each of 68-, 71-, and 77-dB [equivalent to 3-, 6-, and 12-dB above background]) presented in a pseudo-randomized order. Six pulse-alone trials were presented at the beginning and the end of the test session but were not used in the calculation of PPI values. Raw data for all PPI experiments are provided as supporting information (S5 File).
The amount of PPI was calculated as a percentage score for each prepulse + pulse trial type: %PPI = 100−{[(startle response for prepulse + pulse trial)/(startle response for pulse-alone trial)] × 100}. Startle magnitude was calculated as the average response to all of the pulse-alone trials. PPI data were analyzed with two-factor analysis of variance (ANOVA) with treatment as the between-subjects factor and trial type (prepulse intensity) as a repeated measure. For experiments in which there was no significant interaction between drug and prepulse intensity, PPI data were collapsed across prepulse intensity and average PPI was used as the main dependent measure. ED50 values were calculated using nonlinear regression. Startle magnitude data were analyzed with one-factor ANOVA. Post-hoc analyses were performed using Tukey’s studentized range method. The alpha level was set at 0.05.

Sprague–Dawley rats [3] = assay: Acoustic startle response (ASR) magnitude in rats; type: in vivo, rat
Experimental: as §3, with “Principles of laboratory animal care were followed.” left out
Eight startle chambers (SR-LAB system, San Diego Instruments, San Diego, CA, USA) were used to measure startle reactivity in rats. […] The peak and average amplitudes of the startle response were detected by a piezoelectric accelerometer. At the onset of the startling stimulus, 100 1-ms readings were recorded, and the average amplitude was used to determine the magnitude of the startle response (measured in arbitrary units).
Acoustic startle test sessions consisted of startle trials (pulse-alone) and prepulse trials (prepulse + pulse). […] During each inter-trial interval, the movements of the animals were recorded once to measure response when no stimulus was present (data not shown). […]

[4] = tested on: PCP site within the NMDAR channel;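 also: IC50 by nonlinear regression of percent specific binding versus log concentration, Ki from IC50 via Cheng-Prusoff, raw counts in CPM, duplicates repeated at least three times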
Experimental: (§4) The reaction was terminated by vacuum filtration using a 24 well cell harvester (Brandel, Gaithersburg, MD) over presoaked GF/B glass fiber filters (Brandel, Gaithersburg, MD). Filters were washed with room temperature assay buffer (3 x 5 mL). […] IC50 values were determined in Graphpad Prism 5.0 using non-linear regression with log-concentration plotted against percent specific binding. […] Ki values were calculated using the equation of Cheng and Prusoff [24]. […] Protein concentration was determined via the Bradford method using Coomassie protein assay reagent (Sigma, USA) [25] with rat albumin (Sigma, USA) as standard. Experiments were performed in duplicate and repeated a minimum of three times.

DAT [5] = molecular target: T1, DAT; assay: Monoamine reuptake inhibition assay, DAT in HEK293 cells; type: cell-based; parameters: expressed in transfected cells; host or cells: HEK293; settings: for Hill slope DAT reuptake inhibition: HEK293 cells
Experimental: as §2

[6] = molecular target: PCP site within the NMDAR channel; assay: NMDAR binding, [3H]-MK-801 displacement in rat forebrain homogenate; settings: for Ki: read-out: Ki ± SEM, [3H]-(+)-MK-801, rat forebrain, Cheng-Prusoff;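 as to all read-outs here: IC50 by nonlinear regression of percent specific binding versus log concentration, Ki from IC50 via Cheng-Prusoff, raw counts in CPM, duplicates repeated at least three times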
Experimental: as §4

T1 sequence (Q01959 whole entry): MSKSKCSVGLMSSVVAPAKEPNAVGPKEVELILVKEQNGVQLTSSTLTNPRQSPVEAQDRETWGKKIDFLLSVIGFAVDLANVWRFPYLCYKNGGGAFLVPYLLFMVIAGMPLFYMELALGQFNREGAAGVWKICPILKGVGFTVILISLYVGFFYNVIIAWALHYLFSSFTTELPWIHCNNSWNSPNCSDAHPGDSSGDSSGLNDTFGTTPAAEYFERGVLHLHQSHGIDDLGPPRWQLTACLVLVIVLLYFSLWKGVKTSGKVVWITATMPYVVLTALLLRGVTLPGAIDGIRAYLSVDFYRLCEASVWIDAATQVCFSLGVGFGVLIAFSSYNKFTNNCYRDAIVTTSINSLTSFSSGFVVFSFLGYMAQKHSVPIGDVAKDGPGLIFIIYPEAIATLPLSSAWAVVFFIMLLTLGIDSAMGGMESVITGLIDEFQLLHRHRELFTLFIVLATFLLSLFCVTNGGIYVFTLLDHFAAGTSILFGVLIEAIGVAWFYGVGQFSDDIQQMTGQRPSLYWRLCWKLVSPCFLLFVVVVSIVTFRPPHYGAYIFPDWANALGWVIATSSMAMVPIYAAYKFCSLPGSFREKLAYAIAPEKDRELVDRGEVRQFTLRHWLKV
T3 sequence (P31645 whole entry): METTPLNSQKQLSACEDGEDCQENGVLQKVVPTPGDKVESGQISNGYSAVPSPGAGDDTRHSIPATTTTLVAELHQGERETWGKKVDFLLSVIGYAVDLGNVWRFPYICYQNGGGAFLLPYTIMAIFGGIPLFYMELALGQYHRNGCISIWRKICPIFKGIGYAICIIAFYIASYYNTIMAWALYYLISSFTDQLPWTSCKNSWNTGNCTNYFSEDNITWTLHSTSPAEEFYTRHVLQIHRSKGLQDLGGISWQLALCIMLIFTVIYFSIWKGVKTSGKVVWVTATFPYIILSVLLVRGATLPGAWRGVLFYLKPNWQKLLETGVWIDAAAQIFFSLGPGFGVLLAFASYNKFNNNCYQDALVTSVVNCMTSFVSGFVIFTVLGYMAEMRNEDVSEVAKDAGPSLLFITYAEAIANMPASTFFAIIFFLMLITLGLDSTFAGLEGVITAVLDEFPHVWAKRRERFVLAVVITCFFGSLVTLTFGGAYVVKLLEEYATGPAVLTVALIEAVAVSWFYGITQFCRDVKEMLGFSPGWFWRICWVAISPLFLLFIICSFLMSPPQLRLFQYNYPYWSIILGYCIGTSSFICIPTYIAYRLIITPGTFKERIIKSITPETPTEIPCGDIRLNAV
Chain of M5 (P08912 whole entry): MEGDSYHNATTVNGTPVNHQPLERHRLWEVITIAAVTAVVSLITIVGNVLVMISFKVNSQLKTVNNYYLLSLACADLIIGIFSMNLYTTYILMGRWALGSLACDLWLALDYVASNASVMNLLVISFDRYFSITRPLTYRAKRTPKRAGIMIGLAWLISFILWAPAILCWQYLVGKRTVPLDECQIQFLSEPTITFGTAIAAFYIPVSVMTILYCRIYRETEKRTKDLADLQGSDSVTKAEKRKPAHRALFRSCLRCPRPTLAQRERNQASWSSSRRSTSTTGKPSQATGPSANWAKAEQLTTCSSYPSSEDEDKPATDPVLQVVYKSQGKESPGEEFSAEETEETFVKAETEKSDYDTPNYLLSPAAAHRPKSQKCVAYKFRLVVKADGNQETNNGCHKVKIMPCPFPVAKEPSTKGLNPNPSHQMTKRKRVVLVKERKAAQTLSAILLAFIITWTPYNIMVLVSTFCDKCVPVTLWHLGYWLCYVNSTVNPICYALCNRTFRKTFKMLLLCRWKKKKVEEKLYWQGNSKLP
Chain of H1 (P35367 whole entry): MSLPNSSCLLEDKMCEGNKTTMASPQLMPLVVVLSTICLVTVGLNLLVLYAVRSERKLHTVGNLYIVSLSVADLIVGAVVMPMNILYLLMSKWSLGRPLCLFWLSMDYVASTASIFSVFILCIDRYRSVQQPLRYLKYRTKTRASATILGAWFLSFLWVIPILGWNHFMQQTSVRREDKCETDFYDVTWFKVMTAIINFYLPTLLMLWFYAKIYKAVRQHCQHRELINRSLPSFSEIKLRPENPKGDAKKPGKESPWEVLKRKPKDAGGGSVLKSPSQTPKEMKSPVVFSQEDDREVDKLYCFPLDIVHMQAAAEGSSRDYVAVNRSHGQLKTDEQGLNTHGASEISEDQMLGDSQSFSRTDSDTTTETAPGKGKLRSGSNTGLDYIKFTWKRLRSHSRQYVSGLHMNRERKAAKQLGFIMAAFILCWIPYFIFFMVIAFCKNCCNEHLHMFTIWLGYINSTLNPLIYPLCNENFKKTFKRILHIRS

| SMILES | Ki (H1) | Ki (M5) | Ki (DAT [1]) | Ki (Sigma 2) | IC50 (Human SERT) | effect on PPI (Sprague–Dawley rats [2]; 20 mg/kg s.c.) | effect on PPI (Sprague–Dawley rats [2]; doses up to 10 mg/kg s.c.) | acoustic startle response (ASR) magnitude (Sprague–Dawley rats [3]; 20 mg/kg s.c., vehicle 175.9 ± 29.2) | IC50 [4] | IC50 (DAT [5]) | Hill slope DAT reuptake inhibition (DAT [5]) | Ki [6] | effect on average PPI (Sprague–Dawley rats [2]; 10 mg/kg s.c., first dose-response experiment) | effect on PPI (Sprague–Dawley rats [2]; 10, 20 and 30 mg/kg s.c., second experiment) | ED50 (Sprague–Dawley rats [2]; 10 min before test) | ED50 (Sprague–Dawley rats [2]; 95% CI in parentheses) | effect on magnitude of the ASR (Sprague–Dawley rats [3]; 1.25–30 mg/kg s.c., both experiments) | NMDAR affinity relative to ketamine ([6]; higher affinity) |
| --- | --- | --- | --- | --- | --- | --- | --- | --- | --- | --- | --- | --- | --- | --- | --- | --- | --- | --- |
| COc1ccccc1C(Cc1ccccc1)N1CCCCC1 (stereo not drawn) [2-MXP, 2-methoxydiphenidine] | 533 nM | 1530 nM | 2910 nM | 508 nM | > 10000 nM | did disrupt PPI; also recorded: significant inhibition of PPI | did not alter PPI | 78.8 ± 11.9 arbitrary units | 56.5 ± 5.8 nM | 30000 nM | 0.81 | 36 ± 3.7 nM |  |  |  |  |  |  |
| c1ccc(CC(c2ccccc2)N2CCCCC2)cc1 (stereo not drawn) [DPH, diphenidine] | 1340 nM | 1650 nM | 317 nM | 193 nM | > 10000 nM |  |  |  | 28.6 ± 3.5 nM | 1990 nM | 0.91 | 18.2 ± 2.2 nM | significantly reduced average PPI | reduced PPI at all three prepulse intensities | 9.5 mg/kg | 31.5 µmol/kg | did not alter the magnitude of the ASR | ~ 18 fold |
